Among the data in ChEMBL document CHEMBL3751790, “Novel hydroxyamides and amides containing D-glucopyranose or D-fructose units: Biological assays in MCF-7 and MDST8 cell lines” (Bioorg Med Chem Lett, 2016) are inhibition and IC50 values, retold here.

The source made the active and inactive calls. The rule behind the calls is not given here.

Assay [1] relates to MCF7. Briefly: Cytotoxicity against human MCF7 cells at 1 x 10^-5 M after 72 hrs by CCK8 assay. As to conditions: for inhibition at 10 µM: MCF7, 72 h. In kind it is functional. (In general: Tetrazolium assays rely on reduction of a dye to a coloured formazan, in cell work by metabolically active cells.)
Assay [2] deals with MCF7. Kind of assay: Cytotoxicity against human MCF7 cells after 72 hrs by CCK8 assay. In kind it is functional, cell-based.
Assay [3] in a line: (§1) Cytotoxicity against human MDST8 cells at 1 x 10^-5 M after 72 hrs by CCK8 assay. In kind it is functional. As to conditions: MDST8, 72 h.
Assay [4] can be described thus: Cytotoxicity against human MDST8 cells after 72 hrs by CCK8 assay. In kind it is functional, cell-based.
Assay [5] in a line: Cytotoxicity against human MDST8 cells at 1 x 10^-8 M after 72 hrs by CCK8 assay. In kind it is functional. As to conditions: MDST8, 72 h.
Assay [6] has as its system MDST8. The assay is described as §1. In kind it is functional.
[7] abbreviates: Homo sapiens, MCF7, 72 h, read-out: IC50.
[8] abbreviates: Homo sapiens, MDST8, 72 h, read-out: IC50.

Usually inhibition stands for the relative decrease from the control value, in per cent. The IC50 is the concentration at which inhibition is half-maximal. On to `CC(C)(C)[C@@H](CO)NC(=O)[C@H]1OC(O)(CO)[C@@H](O)[C@@H]1O` (single isomer, unassigned), for which the inhibition entry in assay [1] is “Active”. Besides, in assay [2] (mcf7), the IC50 result is “Active”.
In assay [3], `CC(C)[C@@H](CO)NC(=O)[C@H]1OC(O)(CO)[C@@H](O)[C@@H]1O` (single isomer, unassigned) showed an inhibition at 10 µM of 80%. The IC50 result in assay [4] (mdst8) is on record as “Active”.
Turning to `O=C(NCCCO)[C@H]1O[C@](O)(CO)[C@@H](O)[C@@H]1O`, the inhibition at 10 µM in assay [1] was > 60%. The IC50 entry in assay [4] (mdst8) was “Not Active”; in assay [2] (mcf7), “Active”.
`CC(=O)O[C@@H]1O[C@H](C(=O)N2CCCC2)[C@@H](OC(C)=O)[C@H](OC(C)=O)[C@H]1OC(C)=O`: the IC50 in assay [2] (setting [7]) worked out at 1000 nM.
Turning to `CC(=O)O[C@@H]1O[C@H](C(=O)N[C@H](CO)c2ccccc2)[C@@H](OC(C)=O)[C@H](OC(C)=O)[C@H]1OC(C)=O`, the IC50 entry in assay [4] (mdst8) and in assay [2] (mcf7) was “Not Active” in each case.
Regarding `C=CCOC(=O)[C@H]1O[C@@H](OC(C)=O)[C@H](OC(C)=O)[C@@H](OC(C)=O)[C@@H]1OC(C)=O`, in assay [2] (setting [7]), the IC50 was determined as 4500 nM.
Regarding `CC(=O)O[C@@H]1O[C@H](C(=O)NCCCBr)[C@@H](OC(C)=O)[C@H](OC(C)=O)[C@H]1OC(C)=O`, in assay [5], the inhibition at 0.01 µM is 50%. Also, the inhibition at 10 µM in assay [3] is > 90%. Further, the IC50 in assay [4] (setting [8]) was 100 nM; in assay [2] (mcf7), “Not Active”.
`O=C(N[C@H](CO)c1ccccc1)[C@H]1O[C@](O)(CO)[C@@H](O)[C@@H]1O`: the 50% inhibitory concentration (IC50) entry in assay [4] (mdst8) and in assay [2] (mcf7) was “Not Active” throughout.
On to `O=C(NCCO)[C@H]1O[C@](O)(CO)[C@@H](O)[C@@H]1O`, for which the inhibition at 10 µM in assay [1] is > 60%. Further, the half-maximal inhibitory concentration (IC50) entry in assay [4] (mdst8) was “Not Active”; in assay [2] (mcf7), “Active”.
In the case of `O=C(N[C@H](CO)Cc1ccccc1)[C@H]1OC(O)(CO)[C@@H](O)[C@@H]1O` (single isomer, unassigned), the IC50 result in assay [4] (mdst8) and in assay [2] (mcf7) was “Not Active” in each case.
On to `CC(=O)O[C@@H]1O[C@H](C(=O)N[C@H]2CN(Cc3ccccc3)C[C@@H]2NC(=O)[C@H]2O[C@@H](OC(C)=O)[C@H](OC(C)=O)[C@@H](OC(C)=O)[C@@H]2OC(C)=O)[C@@H](OC(C)=O)[C@H](OC(C)=O)[C@H]1OC(C)=O`, for which the half-maximal inhibitory concentration (IC50) in assay [4] (setting [8]) is 100 nM.
For `CC(=O)O[C@@H]1O[C@H](C(=O)N[C@H](CO)C(C)C)[C@@H](OC(C)=O)[C@H](OC(C)=O)[C@H]1OC(C)=O`, in assay [6], the inhibition entry was “Active”.
Regarding `O=C(Nc1ccncc1)[C@H]1O[C@@H](O)[C@H](O)[C@@H](O)[C@@H]1O`, the IC50 in assay [2] (setting [7]) came out at 190 nM.
For `CC(=O)O[C@@H]1O[C@H](C(=O)NCCCO)[C@@H](OC(C)=O)[C@H](OC(C)=O)[C@H]1OC(C)=O`, the inhibition at 10 µM in assay [1] was > 60%. Also, the IC50 entry in assay [4] (mdst8) is listed as “Not Active”; in assay [2] (mcf7) it was “Active”.
`CC(=O)O[C@@H]1O[C@H](C(=O)N[C@H](CO)Cc2ccccc2)[C@@H](OC(C)=O)[C@H](OC(C)=O)[C@H]1OC(C)=O`: the IC50 entry in assay [4] (mdst8) and in assay [2] (mcf7) was “Not Active” in each case.
Take `CC(=O)O[C@@H]1O[C@H](C(=O)NCCO)[C@@H](OC(C)=O)[C@H](OC(C)=O)[C@H]1OC(C)=O`: the inhibition at 10 µM in assay [1] was > 60%. In addition, the figures for the IC50 entry in assay [4] (mdst8) and in assay [2] (mcf7) were “Not Active” and “Active”, respectively.
With `O=c1[nH]cc(F)c(=O)[nH]1` [FLUOROURACIL], the inhibition at 10 µM in assay [3] worked out at 83%; in assay [1], 60%. Besides, the IC50 in assay [4] (setting [8]) turned out to be 64 nM; in assay [2] (setting [7]) it was 520 nM.
